Experimental data as given in patent US20200368211A1, “INHIBITION OF GAMMA-GLUTAMYLTRANSFERASE AND GLUTATHIONE CATABOLISM TO ENHANCE THE EFFICACY OF NF-KB SIGNALLING PATHWAY INHIBITORS” (UNIVERSITAET HEIDELBERG, priority 2017, published 2020).
Where two headings read alike, the source gives them in different places.

Key:
Assay type in all cases: cell-based, human
MOLM13 cells = assay: Intracellular ROS/superoxide detection by flow cytometry, MOLM13 cells; details: 10% FCS (OU749 100 μM) and 10% HS (OU749 200 μM); sorafenib 10 nM
Method: (§1) Intracellular ROS/superoxide levels were assessed by the ROS/superoxide Detection Assay Kit (ab139476, Abcam, Cambridge, UK) according to the manufacturer's protocol.
(§2) Cells were incubated with OU749 for 10 minutes prior to addition of serum or albumin (FCS or HS, both 10%, BSA or different HSA preparations as indicated), or albumin-supplemented FCS (supplementation with HSA or BSA: final albumin concentration 4-5 mg/ml). The final cell concentration was 1×10^5/ml/tube (volume 1 ml). Mean fluorescence intensities of at least 10000 events were assessed and compared.
(§3) ROS and superoxide levels were assessed by flow cytometry using the cellular ROS/superoxide Detection Assay Kit (ab139476, Abcam, Cambridge, UK) according to the manufacturer's protocol. […] Mean fluorescence intensities of at least 10000 events were assessed and compared.

MEC1 cells [1] = assay: Intracellular ROS/superoxide detection by flow cytometry, MEC1 cells; details: 10% FCS (OU749 100 μM) and 10% HS (OU749 200 μM); sorafenib 10 μM
Method: as §1, §2, §3

MEC1 cells [2] = assay: MTT cell proliferation assay, MEC1 cells
Method: For metabolic activity assays, here MTT-assays, cell density was 3×10^4 cells per well (96 well plate). For ROS/superoxide detection assays cell density was 1×10^5 per tube (volume 1 ml). For NF-κB family member activation assays nuclear cell extracts were used (9×10^6 cells/6 ml volume in 6 well plates). The MTT or XTT assay is the most reliable for assessment of cell growth. In principal all assays are based on staining of viable cells after treatment. Cytotoxic effects in cell lines may also be assessed by [^3H] thymidine incorporation (see below). Cell proliferation was assessed by the MTT assay. […] The plates were incubated for 72 h under standard conditions. After addition of 15 μl of a 5 mg/ml MTT solution (MTT; Sigma, Germany) to each well and incubation for another 4 h, 100 μl/well of a 10% sodium dodecyl sulphate solution in 0.01 M hydrochloric acid were added and the plates were incubated overnight under the same conditions (stain development). Subsequently, the absorbance of each well at 540 nm (reference wavelength 690 nm) was recorded with an absorbance plate reader (Sunrise, Tecan, Switzerland). Blank control values (no drug, no cells) were subtracted from the sample values and the means of replicate wells for each drug dilution and the control (cells grown in absence of the drug) were used to calculate the extent of relative cell proliferation (as percentage of the control) and growth inhibition.

HL60 cells = assay: MTT cell proliferation assay, HL60 cells
Method: For assessment of cytostatic and/or cytotoxic effects HL60 cells were washed in serum-free RPMI-1640 medium supplemented with 2 mM L-glutamine and 1% penicillin/streptomycin and diluted to 1.25×10^5/ml (logarithmic cell growth). Cells were incubated with OU749 for 10 minutes prior to addition of serum (FCS or HS, both 10%) to washed cells resulting in a density of 1.11×10^5/ml. For MTT-assays cell density was 1×10^4 cells per well (96 well plate).
The MTT or XTT assay is the most reliable for assessment of cell growth. In principal all assays are based on staining of viable cells after treatment. Cytotoxic effects in cell lines may also be assessed by [^3H] thymidine incorporation (see below). Cell proliferation was assessed by the MTT assay. After washing in serum-free medium, pre-incubation with inhibitors of the glutathione catabolism, and addition of defined serum or albumin or serum+albumin concentrations, 90-μl aliquots of the cell suspension (density see above) were dispensed into 96-well flat-bottomed microtitre plates containing 10 μl/well of serial drug dilutions. The plates were incubated for 72 h under standard conditions. After addition of 15 μl of a 5 mg/ml MTT solution (MTT; Sigma, Germany) to each well and incubation for another 4 h, 100 μl/well of a 10% sodium dodecyl sulphate solution in 0.01 M hydrochloric acid were added and the plates were incubated overnight under the same conditions (stain development). Subsequently, the absorbance of each well at 540 nm (reference wavelength 690 nm) was recorded with an absorbance plate reader (Sunrise, Tecan, Switzerland). Blank control values (no drug, no cells) were subtracted from the sample values and the means of replicate wells for each drug dilution and the control (cells grown in absence of the drug) were used to calculate the extent of relative cell proliferation (as percentage of the control) and growth inhibition. Since inhibitors were initially dissolved in DMSO, serial drug dilutions and controls were prepared to finally achieve 0.2% DMSO in all wells (total volume 100 μl); no anti-proliferative effects could be observed at this DMSO concentration in the investigated cell lines.
After washing in serum-free medium cells were diluted to desired density (3.70×10^5/ml for MEC1 and MOLM13, 1.25×10^5/ml for HL60) and HS and FCS was added both in a final concentration of 10%. Then 90-μl aliquots of the cell suspension (densities after addition of serum: 3.33×10^5/ml for MEC1 and MOLM13, 1.1×10^5/ml for HL60) were dispensed into 96-well flat-bottomed microtitre plates containing 10 μl/well of serial drug dilutions of NF-κB inhibitors. The cell concentrations in the 96 well plate were: 3×10^4/well for MEC1 and MOLM13, 1×10^4/well for HL60.
Then 90-μl aliquots of the cell suspension (densities after addition of serum: 3.33×10^5/ml for MEC1 and MOLM13, 1.1×10^5/ml for HL60) were dispensed into 96-well flat-bottomed microtitre plates containing 10 μl/well of serial drug dilutions of NF-κB inhibitors. The cell concentrations in the 96 well plates were: 3×10^4/well for MEC1 and MOLM13, 1×10^4/well for HL60.

[3] = 10% HS, DMSO control, 72 h treatment, read-out: IC50, proliferation of MEC1 cells in HS, DMSO control
[4] = 10% HS, plus 200 μM OU749, 72 h treatment, read-out: IC50, proliferation of MEC1 cells in HS after addition of OU749
[5] = 10% fetal calf serum, 72 h treatment, read-out: IC50, proliferation of MEC1 cells, FCS 10%
[6] = 10% human serum, 72 h treatment, read-out: IC50, proliferation of MEC1 cells, HS 10%
[7] = 10% HS, DMSO control, 72 h treatment, read-out: IC50, proliferation of HL60 cells in HS, DMSO control
[8] = 10% HS, plus 200 μM OU749, 72 h treatment, read-out: IC50, proliferation of HL60 cells in HS after addition of OU749
[9] = 10% fetal calf serum, 72 h treatment, read-out: IC50, proliferation of HL60 cells, FCS 10%
[10] = 10% human serum, 72 h treatment, read-out: IC50, proliferation of HL60 cells, HS 10%
[11] = Homo sapiens, MEC1, 10% HS, DMSO control, 72 h treatment, read-out: IC50, proliferation of MEC1 cells in HS, DMSO control
[12] = Homo sapiens, MEC1, 10% HS, plus 200 μM OU749, 72 h treatment, read-out: IC50, proliferation of MEC1 cells in HS after addition of OU749
[13] = Homo sapiens, MEC1, 10% fetal calf serum, 72 h treatment, read-out: IC50, proliferation of MEC1 cells, FCS 10%
[14] = MEC1, 10% human serum, 72 h treatment, read-out: IC50, proliferation of MEC1 cells, HS 10%
[15] = HL-60, 10% human serum, 72 h treatment, read-out: IC50, proliferation of HL60 cells, HS 10%
[16] = Homo sapiens, HL-60, 10% HS, DMSO control, 72 h treatment, read-out: IC50, proliferation of HL60 cells in HS, DMSO control
[17] = Homo sapiens, HL-60, 10% HS, plus 200 μM OU749, 72 h treatment, read-out: IC50, proliferation of HL60 cells in HS after addition of OU749
[18] = Homo sapiens, HL-60, 10% fetal calf serum, 72 h treatment, read-out: IC50, proliferation of HL60 cells, FCS 10%

IC50 (HL60 cells; [7]) [µM] | IC50 (HL60 cells; [8]) [µM] | IC50 (HL60 cells; [9]) [µM] | IC50 (HL60 cells; [10]) [µM] | SMILES | Intracellular ROS, NF-κB inhibitor in combination with γ-GT inhibitor, MOLM13 (MOLM13 cells) | Intracellular ROS, NF-κB inhibitor in combination with γ-GT inhibitor, MEC1 (MEC1 cells [1]) | IC50 (MEC1 cells [2]; [3]) [µM] | IC50 (MEC1 cells [2]; [4]) [µM] | IC50 (MEC1 cells [2]; [5]) [µM] | IC50 (MEC1 cells [2]; [6]) [µM] | IC50 (MEC1 cells [2]; [11]) [µM] | IC50 (MEC1 cells [2]; [12]) [µM] | IC50 (MEC1 cells [2]; [13]) [µM] | IC50 (MEC1 cells [2]; [14]) [µM] | IC50 (HL60 cells; [15]) [µM] | IC50 (HL60 cells; [16]) [µM] | IC50 (HL60 cells; [17]) [µM] | IC50 (HL60 cells; [18]) [µM]
5.04 ± 0.32 | 2.9 ± 0.16 | 2.47 ± 0.3 | 5.04 ± 0.32 | Cc1ccc(S(=O)(=O)/C=C/C#N)cc1 [Bay 11-7082] | increases the levels of intracellular ROS | increases the levels of intracellular ROS | 9.15 ± 1.73 | 4.64 ± 0.41 | 1.85 ± 0.04 | 9.15 ± 1.73 |  |  |  |  |  |  |  | 
4.27 ± 0.1 | 0.67 ± 0.15 | 1.75 ± 0.33 | 4.27 ± 0.1 | O=C1/C(=C/c2ccccc2F)CNC/C1=C\c1ccccc1F [EF24] | increases the levels of intracellular ROS | increases the levels of intracellular ROS | 13.8 ± 4.93 | 1.06 ± 0.25 | 1.66 ± 0.44 | 13.8 ± 4.93 |  |  |  |  |  |  |  | 
 |  |  |  | Cc1oncc1C(=O)Nc1ccc(C(F)(F)F)cc1 [Leflunomide, leflunomide] | increases the levels of intracellular ROS | increases the levels of intracellular ROS |  |  |  |  | 586 ± 29.8 | 176 ± 22.1 | 72.5 ± 5.12 | 586 ± 29.8 | 77.1 ± 2.91 | 77.1 ± 2.91 | 20.3 ± 4.53 | 16.3 ± 1.12
 |  |  |  | CNC(=O)c1cc(Oc2ccc(NC(=O)Nc3ccc(Cl)c(C(F)(F)F)c3)cc2)ccn1 [Sorafenib, sorafenib] | increases the levels of intracellular ROS | increases the levels of intracellular ROS |  |  |  |  | 34.2 ± 2.9 | 12.7 ± 1.18 | 3.03 | 34.2 | 35.2 ± 10 | 35.2 ± 10.3 | 9.65 ± 1.06 | 1.44
